Data: patent publication US20250381198A1 (Melt Pharmaceuticals, Inc., priority 2024, published 2025)

Experiments:
[1] = system: subjects undergoing cataract extraction with lens replacement (CELR); test: Phase 2: subjects completing the surgery (and without interruption); format: in vivo, human; details: Visit 2 (Day 1); Full Analysis Set
Method: The number of subjects achieving analgesia response (observed) in the full analysis set was determined. Success in analgesia response was defined as NPRS<4 at the available at the available four intraoperative timepoints and a failure otherwise (e.g., any interoperative pain rescue was assumed to be a failure. Results are provided in TABLE 25. The number of subjects completing the surgery is provided in TABLE 26, and the number of subjects completing the surgery without interruption is provided in TABLE 27. For this measure, subjects completing the surgery without interruption (other than rescue medication) due to pain or anxiety were considered successes. The number of subjects requiring rescue sedative medication and those requiring analgesic medication are provided in TABLES 28 and 29, respectively. For all TABLES 25-29, p-Values between pairs of treatments were calculated and are provided.

[2] = system: subjects undergoing cataract extraction with lens replacement (CELR); test: Phase 2: subjects receiving opioid concomitant medication postoperatively; format: in vivo, human; details: Full Analysis Set; percent of subjects
[3] = system: subjects undergoing cataract extraction with lens replacement (CELR); test: Phase 2 MELT-300: subjects achieving procedural sedation (RSS level 2 or 3 without rescue); format: in vivo, human; details: for Subjects who achieved target sedation: Full analysis set, MELT-300, 3 mg midazolam alone, 50 mg ketamine alone, sublingual; for Subjects achieving procedural sedation: No / Subjects achieving procedural sedation: Yes: Visit 2 (Day 1), Full Analysis Set, single sublingual tablet (MELT-300; midazolam 3 mg; ketamine 50 mg)
Method: Achievement of procedural sedation was evaluated for each subject (see TABLE 20). Success for procedural sedation for this Phase 2 study was defined as achieving target sedation level (Ramsay Sedation Scale (RSS) scale level 2 or 3) at the start of surgery without the need for rescue sedation medication, and no need for intraoperative rescue sedation medication to maintain target sedation level.

[4] = system: healthy adult subjects; test: Phase 1 pharmacodynamics: sedation by Ramsay sedation scale (RSS); format: in vivo, human; details: for Subjects with RSS score of 2: 5 minutes after administration
Method: Pharmacodynamic parameters included sedation, defined as time to onset of sedation and sedation level, assessed using the Ramsay sedation scale (RSS), and cardiodynamics assessed by QTcF, heart rate, and PR and QRS intervals, and T-wave morphology and U-wave presence, extracted from ECGs collected via Holter monitor from predose through 24 hours postdose.
All pharmacodynamic analyses were performed on data from the Safety Population. The RSS scores were summarized by treatment and by timepoint. Time to onset of sedation was summarized by treatment and presented graphically.

[5] = system: healthy adult subjects; test: Phase 1 safety: adverse events, vital signs, laboratory values, ECG, oral cavity examination, neurocognitive assessment (SPMSQ); format: in vivo, human; details: for Mean changes from baseline in systolic and diastolic blood pressures: MELT-100 3/25 mg and 6/25 mg, each timepoint
Method: The Investigator evaluated safety using physical and oral examinations, O2 saturation (SpO2), vital sign measurements, clinical laboratory evaluations, electrocardiograms (ECGs), reported or observed adverse events (AEs), and assessments of neurocognitive function. Subjects were monitored for any AEs from the first dose through the end of the study.
All safety analyses were performed on data from the Safety Population. All quantitative safety data were tabulated with descriptive summary statistics, including the following: arithmetic mean, SD, median, minimum value, maximum values, and number of non-missing observations (n).
Frequency counts and percentage were provided for categorical data. Data were summarized by treatment sequence, treatment, and/or overall, as applicable. All observed baseline/predose and postdose values were summarized by treatment when data were available. Additionally, the corresponding change from baseline/predose assessment to each postdose assessment were also summarized by treatment. All tabulations involving change from baseline/predose comparisons included only those subjects with data at both the baseline/predose and postdose assessments.
Adverse events were coded using the Medical Dictionary for Regulatory Activities (MedDRA, version 22.0, or later) terms and summarized by system organ class (SOC) and preferred term (PT) within SOC. The number and percentage of subjects reporting TEAEs were summarized by reported SOC and PT for each treatment and the population overall. TEAEs were also summarized by maximum severity and nearest relationship to study drug, by SOC and PT for each treatment.
A by-subject AE (including treatment-emergent) data listing, including but not limited to verbatim term, SOC, PT, severity, and relationship to study treatment, was provided. Deaths, SAEs, and other significant AEs, including those leading to early termination of study treatments were listed.
Vital signs, clinical laboratory values (hematology, serum chemistry, and urinalysis), and 12-lead ECG parameters were summarized by treatment including any abnormal values flagged.
Physical examination and oral cavity examination data at each evaluation were listed. […] Weight and height were summarized. Neurocognitive assessments for each evaluation were listed.

[6] = system: subjects undergoing cataract extraction with lens replacement (CELR); test: Phase 2: subject-rated worst pain during surgery by the numeric pain rating scale; format: in vivo, human; details: Full Analysis Set; for Worst Pain During Surgery (NPRS), Mean / Worst Pain During Surgery (NPRS), Median: carry forward, MELT-300, midazolam 3 mg, ketamine 50 mg
[7] = Phase 1 crossover relative bioavailability study: plasma pharmacokinetics of midazolam, 1-hydroxymidazolam, ketamine and norketamine
Method: PK analysis was performed using noncompartmental methods in Phoenix WinNonlin® (Version 8.1, Certara, L.P.) in conjunction with the internet-accessible implementation of the Pharsight® Knowledgebase Server™ (PKSO; Version 4.0.4, Certara, L.P). PKSO provides protected and structured storage, audit trails, and version control for study data, analyses, and related files, supporting 21 CFR Part 11 compliance. The analysis was performed in accordance with the Statistical Analysis Plan (Version 1.0, 5 Jan. 2021).
During the PK analysis, concentrations below the limit of quantitation (BLQ) up to the time of the first quantifiable concentration were treated as zero. Embedded (values between 2 quantifiable concentrations) and terminal BLQ concentrations were treated as “missing”. Calculation of the PK characteristics were based on actual elapsed times [h] (relative to time of dose).
All PK analyses were performed on the data from the PK Analysis Population. […] The ANOVA model included factors for sequence, subject within sequence, treatment, and period.

[8] = 5-minute postdose timepoint, ketamine 18 mg IV
[9] = midazolam 3.5 mg IV, ketamine 18 mg IV
[10] = Treatment D: ketamine IV 18 mg, fasted
[11] = Treatment C: midazolam IV 3.5 mg, fasted

Row | Compound | Subjects completing the surgery: No [1] | Subjects completing the surgery: Yes [1] | Received Postoperative Opioid on Day 2-8: No, % [2] | Received Postoperative Opioid on Day 2-8: Yes, % [2] | Received Postoperative Opioid on Day 2: No, % [2] | Received Postoperative Opioid on Day 2: Yes, % [2] | Subjects who achieved target sedation [3] [%] | Subjects achieving procedural sedation: No [3] | Subjects achieving procedural sedation: Yes [3] | Subjects with RSS score of 2 [4, 9] [%] | Highest proportion of subjects with RSS scores >2 postdose [4, 9] [%] | Mean changes from baseline in systolic and diastolic blood pressures [5, 9] | Worst pain: Mean Difference versus Placebo [6] | Worst Pain During Surgery (NPRS), Mean [6] | Worst Pain During Surgery (NPRS), Median [6] | also measured
1 | CNC1(c2ccccc2Cl)CCCCC1=O (stereo not shown) [Ketamine, 2-(2-chlorophenyl)-2-(methylamino)cyclohexanone] | 0 (0) n (%) | 79 (100.0) n (%) | (100.0) % | (0.0) % | (100.0) % | (0.0) % | 63.3 | 29 (36.7) n (%) | 50 (63.3) n (%) | 92.0 | ~8 | highest at the 10-minute timepoint | −0.33 | 3.7 | 4.0 | Subjects with RSS score of 1 [4, 8]: 4.0%; Subjects with RSS score of 5 [4, 8]: 4.0%; Treatment-related AEs of hypertension, number ([5]; ketamine 18 mg IV): 3; Ketamine AUCExtrap, mean [7, 10]: 9.64%; Ketamine Clast, mean [7, 10]: 1.99 ng/mL; Ketamine Tlast, mean [7, 10]: 23.7 h; Ketamine Vz, mean [7, 10]: 867 L; clearance ([7]; human, plasma, iv, 18 mg): 998 mL/min
2 | Cc1ncc2n1-c1ccc(Cl)cc1C(c1ccccc1F)=NC2 [Midazolam, 8-chloro-6-(2-fluorophenyl)-1-methyl-4H-imidazo[1,5-a][1,4]benzodiazepine] | 0 (0) n (%) | 81 (100.0) n (%) | (100.0) % | (0.0) % | (100.0) % | (0.0) % | 64.2 | 29 (35.8) n (%) | 52 (64.2) n (%) | 91.7 | ~54 | minimal and similar | 0.05 | 4.0 | 4.0 | Subjects with RSS scores of 3 ([4]; 5-minute postdose timepoint, midazolam 3.5 mg IV): 8.3%; PR duration (one subject) ([5]; 24 hours after midazolam 3.5 mg IV in Period 4, not considered clinically significant): abnormal; Subjects with treatment-related AEs ([5]; midazolam 3.5 mg IV): 8.3%; Treatment-related AEs, number of events ([5]; midazolam 3.5 mg IV): 2 events; Mean change from baseline in pulse oximetry ([5]; midazolam 3.5 mg IV at 10-minute postdose, MELT-100 6/50 mg at 30-minute postdose): small mean decrease from baseline; Worst pain: Mean Difference versus Ketamine ([6]; versus ketamine 50 mg): 0.38; Midazolam AUCExtrap, mean [7, 11]: 5.58%; Midazolam Clast, mean [7, 11]: 0.963 ng/mL
